In PMC7939381, “MMP activation–associated aminopeptidase N reveals a bivalent 14-3-3 binding motif” (The Journal of Biological Chemistry, 2021):
Where a SMILES comes first, the peptide text is derived from it. [ ]: non-standard residue; d: D form. pT = C[C@@H](OP(=O)(O)O)[C@H](N)C(=O)O; pS = N[C@@H](COP(=O)(O)O)C(=O)O

Experiments:
14-3-3η [1] = biological target: T1, 14-3-3η (Homo sapiens, UniProt Q04917); assay: direct binding FP assay, 14-3-3η
T1 construct: N-terminally His6-tagged 14-3-3 full-length proteins were expressed with heterologous bacterial expression; made in house
T1 sequence (Q04917 1-246): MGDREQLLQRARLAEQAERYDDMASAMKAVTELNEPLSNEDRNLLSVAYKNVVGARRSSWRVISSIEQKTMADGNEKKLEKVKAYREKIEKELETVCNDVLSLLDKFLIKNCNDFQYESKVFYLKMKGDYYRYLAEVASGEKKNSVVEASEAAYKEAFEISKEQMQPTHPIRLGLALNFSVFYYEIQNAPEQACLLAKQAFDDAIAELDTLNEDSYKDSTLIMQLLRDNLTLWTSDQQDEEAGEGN
Protocol: (§1) For the FP assay, the 14-3-3 proteins were diluted to a protein-specific start concentration in FP buffer (10 mM HEPES, pH 7.4, 150 mM NaCl, 2 mM DTT, 0.01% Tween 20). DMSO stocks of peptides were diluted in FP buffer to a concentration of 30 nM. For the assay, 10 μl of FP buffer were pipetted in 20 wells of a 384-well Corning black round bottom plate. A dilution series with 10 μl of protein solution was performed, and 5 μl of peptide solution was added to each well for a final volume of 15 μl. The plate was incubated for 60 min at room temperature. Measurement was performed at 25 °C in a Tecan Spark20M plate reader (λex = 470 nm, λem = 525 nm). Data analysis was performed with GraphPad Prism (version 5.03), and KD values were determined via a nonlinear regression fit of dose-response curves with variable slope (four parameters).

14-3-3η [2] = biological target: T1, 14-3-3η; assay: isothermal titration calorimetry (ITC) with 14-3-3η; format: binding; conditions: T = 298 K; peptide per 14-3-3 protomer; mean ± S.D., n = 3
Protocol: The ITC experiments were performed on an automated MicroCal iTC200 (Malvern Panalytical). To prepare 14-3-3 proteins for ITC measurements, a buffer exchange to ITC buffer (50 mM HEPES, pH 7.4, 250 mM NaCl, 20 mM MgCl2) was performed on a Superdex 75 10/300 GL column (ÄKTA Pure FPLC system, GE Healthcare). For peptides 1, 7, and 17, a 500 μM solution of protein was titrated to a 50 μM solution of peptide in 18 steps (2-μl volume in 4 s, 180-s spacing) at 25 °C. For peptide 11, a 250 μM solution of protein was titrated to a 12.5 μM solution of peptide with the settings mentioned before. The reference power was set to […], and the stirring speed was set to 750 rpm. Analysis was performed using MicroCal ITC-ORIGIN analysis software.

14-3-3β/α = biological target: T2, 14-3-3β/α (Homo sapiens, UniProt P31946); assay: direct binding FP assay, 14-3-3β/α; conditions: FITC-labeled peptide, Fig. 2C and Fig. S1
T2 construct: N-terminally His6-tagged 14-3-3 full-length proteins were expressed with heterologous bacterial expression; made in house
T2 sequence (P31946 1-246): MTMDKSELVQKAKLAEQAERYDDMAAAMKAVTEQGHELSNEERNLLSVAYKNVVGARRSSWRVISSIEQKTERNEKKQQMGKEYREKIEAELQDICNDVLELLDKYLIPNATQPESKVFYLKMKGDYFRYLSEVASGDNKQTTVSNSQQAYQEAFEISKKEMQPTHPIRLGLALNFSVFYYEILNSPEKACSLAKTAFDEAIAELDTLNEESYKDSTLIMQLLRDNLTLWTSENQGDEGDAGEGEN
Protocol: as §1

His6-14-3-3η = assay: pulldown of His6-14-3-3η from E. coli cell lysate with biotinylated peptides; format: binding, human; conditions: biotinylated peptide on streptavidin beads; NTA-Atto488 stained SDS-PAGE, Fig. 2E
Protocol: (§2) 14-3-3–overexpressing E. coli cell lysate was prepared by lysing E. coli cells via sonication in pulldown buffer and removing cell debris by ultracentrifugation (53,350 rcf, 45 min, 4 °C). 24 nmol of Streptavidin Sepharose High Performance beads (GE Healthcare) were equilibrated with pulldown buffer (50 mM HEPES, pH 7.4, 250 mM NaCl, 20 mM MgCl2) and incubated with 24 nmol of biotin-1, biotin-6, or no peptide for 45 min on ice. Afterward, the beads were washed three times with pulldown buffer. Subsequently, the beads were incubated for 120 min in the prepared cell lysate. After incubation, beads were washed three times with pulldown buffer and split in half either for direct SDS-PAGE or for competition analysis, respectively. For competition, beads incubated with biotin-1 were incubated with 96 nmol of acetylated peptide 1 for 60 min and washed three times with pulldown buffer. For SDS-PAGE, 6 nmol of beads were added per lane on a Tris-Tricine ([52]) gel and run for 120 min at 150 V. After electrophoresis, gel was fixated for 90 min in a solution of 50% water, 40% EtOH, and 10% acetic acid and consequently washed two times for 30 min in water. Staining of the His6-tagged proteins in the gel was performed in a 1:1000 dilution of a 1 μg/μl solution of NTA-Atto488 (Sigma–Aldrich) for 60 min. Access stain was removed by two washing steps, each 60 min, in water. […]

His6-14-3-3β/α = assay: pulldown of His6-14-3-3β/α from E. coli cell lysate with biotinylated peptides; format: binding, human; conditions: biotinylated peptide on streptavidin beads; NTA-Atto488 stained SDS-PAGE, Fig. S2B
Protocol: as §2

14-3-3σ = biological target: T3, 14-3-3σ (Homo sapiens, UniProt P31947); assay: direct binding fluorescence polarization (FP) assay, 14-3-3σ; conditions: FITC-labeled peptide; Fig. 2A
T3 construct: N-terminally His6-tagged 14-3-3 full-length proteins were expressed with heterologous bacterial expression; made in house
T3 sequence (P31947 1-248): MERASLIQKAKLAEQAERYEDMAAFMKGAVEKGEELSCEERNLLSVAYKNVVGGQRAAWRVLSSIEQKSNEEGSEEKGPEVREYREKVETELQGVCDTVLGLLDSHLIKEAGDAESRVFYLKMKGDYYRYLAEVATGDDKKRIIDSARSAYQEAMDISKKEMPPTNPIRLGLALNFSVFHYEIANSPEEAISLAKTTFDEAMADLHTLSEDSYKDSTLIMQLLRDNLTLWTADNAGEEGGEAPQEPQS
Protocol: as §1

| binding toward 14-3-3σ in direct FP assay (in words) (14-3-3σ) | Molecule | relative affinity of 14-3-3η compared with 14-3-3σ (relative affinity = 1) (14-3-3η [1]; FP assay, FITC-labeled peptide, Fig. 2C and Fig. S1) [fold] | binding stoichiometry N (ITC, 14-3-3η) (14-3-3η [2]) | relative affinity of 14-3-3β/α compared with 14-3-3σ (relative affinity = 1) (14-3-3β/α) [fold] | pulldown of His6-14-3-3η (in words) (His6-14-3-3η) | pulldown of His6-14-3-3β/α (in words) (His6-14-3-3β/α) | increase in overall affinity of 7 versus 11 (14-3-3η, FP) (14-3-3η [1]; pThr^63 combined with site 1, Fig. 4A and Fig. S3) [fold] |
| --- | --- | --- | --- | --- | --- | --- | --- |
| – | CC(=O)N[C@@H](CC(N)=O)C(=O)N[C@@H](CCCCN)C(=O)N[C@@H](CC(N)=O)C(=O)N[C@@H](C)C(=O)N[C@@H](CC(N)=O)C(=O)N[C@@H](COP(=O)(O)O)C(=O)N[C@@H](CO)C(=O)N1CCC[C@H]1C(=O)N[C@H](C(=O)O)C(C)C [compound 1] (Ac-NKNAN[pS]SPV-OH) | 18.6 | 1.05 ± 0.02 | 5.7 | binds specifically | binds specifically | – |
| – | CC(=O)N[C@@H](CCC(=O)O)C(=O)N[C@@H](CCCCN)C(=O)N[C@@H](CC(N)=O)C(=O)N[C@@H](CCCCN)C(=O)N[C@@H](CC(N)=O)C(=O)N[C@@H](C)C(=O)N[C@@H](CC(N)=O)C(=O)N[C@@H](COP(=O)(O)O)C(=O)N[C@@H](CO)C(=O)N1CCC[C@H]1C(=O)N[C@H](C(=O)N[C@@H](C)C(=O)N[C@@H](CO)C(=O)N[C@H](C(=O)N[C@H](C(=O)N1CCC[C@H]1C(=O)N[C@@H](CO)C(=O)N[C@@H](C)C(=O)N[C@@H](CO)C(=O)N[C@@H](C)C(=O)N[C@H](C(=O)N[C@H](C(=O)N[C@@H](CC(N)=O)C(=O)N1CCC[C@H]1C(=O)N[C@@H](C)C(=O)N[C@@H](CO)C(=O)N[C@@H](C)C(=O)N[C@H](C(=O)N[C@H](C(=O)N[C@@H](CC(C)C)C(=O)N[C@@H](CC(=O)O)C(=O)N[C@@H](CCC(N)=O)C(=O)N[C@@H](CO)C(=O)N[C@@H](CCCCN)C(=O)N[C@@H](C)C(=O)N[C@@H](Cc1c[nH]c2ccccc12)C(=O)N[C@@H](CC(N)=O)C(=O)N[C@@H](CCCNC(=N)N)C(=O)O)[C@@H](C)O)[C@@H](C)OP(=O)(O)O)[C@@H](C)O)[C@@H](C)O)[C@@H](C)O)[C@@H](C)O)C(C)C [compound 11] (Ac-EKNKNAN[pS]SPVASTTPSASATTNPASA[pT]TLDQSKAWNR-OH) | – | 0.58 ± 0.01 | – | – | – | ~500 |
| did not show any binding | KNANSpSPVA [compound 6, APN 39–47 pSer^44 peptide KNANSpSPVA, negative control] | – | – | – | – | – | – |
